5 compounds from patent publication US4871727A, “Anti-inflammatory and antidegenerative compounds isolated from L-681,512” (Merck & Co, Inc., priority 1987, dated 1989) can be followed below.

This test addresses T1, Human Polymorphonuclear Leukocyte Elastase (Homo sapiens, UniProt P08246).
T1 construct: Crude extract of human polymorphonuclear leukocytes (PMN) containing elastase activity; endogenous in cells; host or cells: human polymorphonuclear leukocytes (crude extract)
T1 sequence (P08246 30-247 limits assumed): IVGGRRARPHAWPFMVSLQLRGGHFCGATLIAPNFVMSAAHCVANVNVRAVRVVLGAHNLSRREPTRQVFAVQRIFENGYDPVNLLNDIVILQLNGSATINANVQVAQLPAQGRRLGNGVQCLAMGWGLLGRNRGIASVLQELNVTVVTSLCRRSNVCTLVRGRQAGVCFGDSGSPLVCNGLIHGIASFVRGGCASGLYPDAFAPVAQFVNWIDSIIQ
The test can be described thus: Inhibition of human polymorphonuclear leukocyte (PMN) elastase via hydrolysis of N-t-Boc-alanyl-alanyl-prolyl-alanine-p-nitroanilide (two point or "zero time" assay). In kind it is biochemical. Conditions: 50% inhibition of the enzyme activity 2 minutes after zero time; crude human PMN extract; 0.2 mM Boc-AAPAN, pH 7.5, 410 nm; read-out: ED50 (the source's name) (converted). From the text:
It is generally understood that the enzyme of interest is that enzyme against which the inhibitory activity of the fermentation broth samples are being determined and quantified (e.g., PMN elastase). Consequently, all of the remaining wells are charged with the same enzyme of interest. However, several enzymes of interest can be charged to a plurality of wells, and the wells grouped together to facilitate separate identification and assay. When this is done, separate control wells must then also be prepared to correspond to the different enzymes of interest.
The chromogenic medium is charged to all the wells at substantially the same time and the time of this addition is noted. This is the "zero time" mentioned earlier as it is from that moment that a predetermined time lapse is measured during which sufficient reaction between the fermentation broth samples and the enzyme of interest occurs to enable not only accurate screening of enzyme inhibitory activity, but also the degree of that activity. Naturally, the predetermined time lapse will differ with different enzymes and can be from about 1 minute to about 20 minutes, typically from about 2 minutes to about 10 minutes.
The chromogenic media typically used are aromatic nitro- containing compounds. Illustrative of such compounds are Boc-ala-ala-pro-ala-p-nitroanilide, -α-benzoyl-DL-arginine-p-nitroanilide, N-α-benzoyl-L-tyrosine-p-nitroanilide, and the like.
Using the two point or "zero time" assay method described above, the following protocol was employed:
Enzyme Assays for the Inhibition of Human Polymorphonuclear Leukocyte Elastase Via Hydrolysis of N-t-Boc-alanyl-alanyl-prolylalanine-p-nitroanilide
0.05M TES (N-tris[hydroxymethyl]methyl-2-amino-ethanesulfonic acid) Buffer, pH 7.5.
0.2 mM N-t-Boc-alanyl-alanyl-prolyl-alanine-p-nitroanilide (Boc-AAPAN).
To prepare substrate, the solid (m.w. 550) was first dissolved in 10.1 ml DMSO. Buffer at pH 7.5 was then added to a final volume of 100 ml.
Crude extract of human polymorphonuclear leukocytes (PMN) containing elastase activity.
Inhibitors (cephalosporin sulfone esters) to be tested dissolved in DMSO just before use.
To 1.0 ml of 0.2 mM Boc-AAPAN in a cuvette, 0.01-0.1 ml of DMSO with or without inhibitor was added. After mixing, a measurement was taken at 410 nm to detect any spontaneous hydrolysis due to presence of test compound. 0.05 Milliliters of PMN extract was then added and the ΔOD/min at 410 nm was measured and recorded. A Beckman model 35 spectrophotometer was used.
Results were reported as ED50, i.e., effective dosage in micrograms per milliliter (μg/ml) for 50% inhibition of the enzyme activity 2 minutes after zero time.
The elastase activity in the crude PMN extract may vary from one preparation to another. A control of each new batch is run, and the volume added in the assay procedure is adjusted according to activity.
As to `C=C(CCC(C)[C@H]1CC=C2C3=C([C@@H](O)[C@H](O)C21C)C1(C)C[C@@H](O)[C@H](OS(=O)(=O)O)C(C)(C)[C@@H]1CC3)C(C)C` (some centres unmarked) [Compound 11], the IC50 is 3.44 µM.

As for `C=C(CCC(C)[C@H]1CCC2C3=C([C@@H](O)[C@H](OC(C)=O)C21C)C1(C)C[C@@H](O)[C@H](OS(=O)(=O)O)C(C)(C)[C@@H]1CC3)C(C)C` (some centres unmarked) [Compound 2], the IC50 was 2.51 µM.

For the compound `C=C(CCC(C)[C@H]1CC=C2C3=C([C@@H](O)[C@H](OC(C)=O)C21C)C1(C)C[C@@H](O)[C@H](O)C(C)(C)[C@@H]1CC3)C(C)C` (some centres unmarked) [Compound 5], the IC50 was 1.75 µM.

Turning to `C=C(CCC(C)[C@H]1CC=C2C3=C([C@@H](O)[C@H](OC(C)=O)C21C)C1(C)C[C@@H](O)[C@H](OS(=O)(=O)O)C(C)(C)[C@@H]1CC3)C(C)C` (some centres unmarked) [Compound 1], the IC50 was 2.35 µM.

With `C=C(CCC(C)[C@H]1CC=C2C3=C([C@@H](OC(C)=O)[C@H](OC(C)=O)C21C)C1(C)C[C@@H](OC(C)=O)[C@H](OS(=O)(=O)O)C(C)(C)[C@@H]1CC3)C(C)C` (some centres unmarked) [Compound 10], the IC50 was 262 µM.
